Reference: ChEMBL document CHEMBL1201862, “PubChem BioAssay data set” (2004)
Activity calls are given as the source filed them.

Key:
[1] = target: T1, Calpain-2 catalytic subunit (Sus scrofa, UniProt P43367); assay: m-calpain protease blockers, concentration series – biochemical, fluorogenic peptide substrate, dose response (AID 1420); format: functional
T1 sequence (P43367 whole entry): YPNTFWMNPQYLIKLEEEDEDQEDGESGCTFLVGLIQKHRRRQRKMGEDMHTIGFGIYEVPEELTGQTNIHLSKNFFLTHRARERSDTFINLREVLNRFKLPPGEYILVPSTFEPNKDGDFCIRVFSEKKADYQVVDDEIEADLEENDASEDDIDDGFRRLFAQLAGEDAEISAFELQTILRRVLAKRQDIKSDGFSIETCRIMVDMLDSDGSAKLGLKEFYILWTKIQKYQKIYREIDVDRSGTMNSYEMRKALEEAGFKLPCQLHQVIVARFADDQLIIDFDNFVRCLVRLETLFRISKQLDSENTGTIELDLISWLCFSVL

[2] = target: T2, DNA repair protein RAD52 homolog (Homo sapiens, UniProt P43351); format: functional, biochemical
T2 sequence (P43351 whole entry): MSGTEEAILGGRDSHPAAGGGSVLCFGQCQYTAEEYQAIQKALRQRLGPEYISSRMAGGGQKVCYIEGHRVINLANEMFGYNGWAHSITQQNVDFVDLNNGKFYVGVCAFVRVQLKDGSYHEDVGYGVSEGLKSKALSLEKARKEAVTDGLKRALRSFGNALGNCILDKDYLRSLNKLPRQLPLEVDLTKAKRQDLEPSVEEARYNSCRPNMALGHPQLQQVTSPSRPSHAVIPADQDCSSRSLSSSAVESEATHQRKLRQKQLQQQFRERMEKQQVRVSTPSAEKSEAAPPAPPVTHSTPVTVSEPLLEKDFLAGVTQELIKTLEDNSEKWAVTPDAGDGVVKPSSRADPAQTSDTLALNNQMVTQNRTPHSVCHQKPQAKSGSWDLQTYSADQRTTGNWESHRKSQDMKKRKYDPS

[3] = target: T3, RNA-binding protein pos-1 (Caenorhabditis elegans, UniProt G5EF15); assay: disruptors of C. elegans POS-1 RNA interaction – biochemical, fluorescence polarization, dose response (AID 1964);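 further: purified POS-1 fused to maltose binding protein made in E. coli; potency of compounds blocking POS-1 binding to fluorescent RNA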
T3 sequence (G5EF15 whole entry): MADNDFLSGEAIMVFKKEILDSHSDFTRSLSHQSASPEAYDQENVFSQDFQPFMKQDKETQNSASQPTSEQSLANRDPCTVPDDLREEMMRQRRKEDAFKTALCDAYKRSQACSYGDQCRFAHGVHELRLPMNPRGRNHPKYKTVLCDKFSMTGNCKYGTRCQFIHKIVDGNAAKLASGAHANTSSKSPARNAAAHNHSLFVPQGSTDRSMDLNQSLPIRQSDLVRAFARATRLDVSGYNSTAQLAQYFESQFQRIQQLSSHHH

[4] = target: T4, Zinc finger protein mex-5 (Caenorhabditis elegans, UniProt Q9XUB2); assay: potency of MEX-5 RNA-binding blockers – biochemical, C. elegans, fluorescence polarization, dose response (AID 1960)
T4 sequence (Q9XUB2 whole entry): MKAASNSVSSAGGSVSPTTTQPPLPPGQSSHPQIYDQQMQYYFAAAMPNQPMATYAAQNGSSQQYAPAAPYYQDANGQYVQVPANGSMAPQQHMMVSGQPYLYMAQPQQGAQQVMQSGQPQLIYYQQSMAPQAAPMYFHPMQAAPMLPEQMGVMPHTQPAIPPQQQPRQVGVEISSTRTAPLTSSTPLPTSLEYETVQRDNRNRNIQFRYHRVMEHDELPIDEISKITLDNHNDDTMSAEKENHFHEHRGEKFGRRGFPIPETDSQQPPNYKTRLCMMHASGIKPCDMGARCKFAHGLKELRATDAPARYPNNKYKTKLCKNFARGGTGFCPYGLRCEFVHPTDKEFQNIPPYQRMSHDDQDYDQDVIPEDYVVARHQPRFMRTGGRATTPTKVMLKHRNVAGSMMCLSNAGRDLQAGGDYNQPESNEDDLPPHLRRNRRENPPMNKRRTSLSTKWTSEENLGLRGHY

[5] = off-target signal loss in HeLa-CEM21 co-culture – HeLa F-luc CTL cells, cherry-picked, counter-screen for HIV-1 Env fusion inhibitor project, dose response (AID 652040); format: functional, cell-based;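 further: potency for signal decrease marking cytotoxic or nonspecific inhibition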
[6] = HIV-1 AD8 envelope cell-cell fusion blockers – cherry-pick, dose response (AID 652062); format: functional, cell-based;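 further: luciferase signal from cell-cell fusion driven by HIV-1 clade B AD8 Env; potency is for inhibitors of fusion seen as a drop in luminescence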
[7] = tested on: H9c2; assay: cells; format: functional, cell-based; conditions: Rattus norvegicus, H9c2, Myocardium;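 further: confirmatory concentration-response retest of ultra-high-throughput screening hits for modulation of myocardial damage; cell death induced by hydrogen peroxide oxidative stress; compound pretreatment for 60 min then peroxide exposure for 2 h; potency is for protecting the cells against peroxide damage rather than for killing them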
[8] = growth inhibition of yeast DHODH-expressing 3D7 parasites – SYBR Green, dry powder samples, dose response (AID 1159570); format: functional, cell-based;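 further: parasite growth measured after 72 hours of compound exposure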
[9] = P. falciparum Dd2 growth inhibitors, dose response, SYBR Green, cherry-picked samples (AID 1159567); format: functional, cell-based
[10] = Dd2 malaria parasite growth inhibition potency – SYBR Green, dry powder samples, dose response (AID 1159566); format: functional, cell-based;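 further: potency for growth inhibition with lower SYBR green DNA signal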
[11] = growth inhibition of PfATP4-mutant resistant parasites – NITD609-resistant line, SYBR Green, dry powder, dose response (AID 1159571); format: functional, cell-based;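 further: parasites synchronized at ring stage by sorbitol before testing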
[12] = blockers of HIV-1 envelope-mediated cell-cell fusion – cherry-pick, dose response (AID 652057); format: functional, cell-based
[13] = blockers of HIV-1 ZM109 envelope-driven cell-cell fusion – HeLa effector, CEM target cells, luciferase, cherry-pick, dose response (AID 652058); format: functional, cell-based;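 further: luciferase signal from HIV-1 Env mediated cell-cell fusion of effector and target cells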
[14] = tested on: Streptococcus sp. 'group A'; assay: Streptococcus pyogenes SK(-)GAS viability under kanamycin – luminescence, BacTiterGlo, confirmation, counter-screen for streptokinase expression inhibitor project, dose response (AID 1900); format: functional, organism-based
[15] = target: Induced myeloid leukemia cell differentiation protein Mcl-1 (Homo sapiens, UniProt Q07820); format: functional
[16] = tested on: Streptococcus; assay: GAS UMAA2166 growth inhibition – luminescence, BacTiterGlo, counter-screen for streptokinase expression inhibitor project, dose response (AID 1915); format: functional, organism-based;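 further: potency for reduction of bacterial viability or growth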
[17] = target: T5, Ubiquitin-conjugating enzyme E2 N (Homo sapiens, UniProt P61088); format: functional;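 further: Dose-response confirmation in a TR-FRET assay detecting UBC13-driven polyubiquitin chain formation, inhibition measured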
T5 sequence (P61088 whole entry): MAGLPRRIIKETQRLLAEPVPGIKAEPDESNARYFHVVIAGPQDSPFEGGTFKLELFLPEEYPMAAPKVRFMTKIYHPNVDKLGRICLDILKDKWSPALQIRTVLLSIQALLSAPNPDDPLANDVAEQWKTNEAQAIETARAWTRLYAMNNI

[18] = intracellular Trypanosoma cruzi inhibitors in host cells – cell-based, plate reader, cherry-pick samples, set 3, dose response (AID 651818); format: functional;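 further: compounds incubated with infected cells for about four days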
[19] = target: T6, Corticotropin-releasing factor receptor 2/Corticotropin-releasing factor-binding protein (Homo sapiens, UniProt P24387+Q13324); assay: Dose Response confirmation of uHTS hits for small molecule antagonists of the CRF-binding protein and CRF-R2 receptor complex.; format: functional; conditions: read-out: IC50_Mean
T6 sequence (Q13324 whole entry): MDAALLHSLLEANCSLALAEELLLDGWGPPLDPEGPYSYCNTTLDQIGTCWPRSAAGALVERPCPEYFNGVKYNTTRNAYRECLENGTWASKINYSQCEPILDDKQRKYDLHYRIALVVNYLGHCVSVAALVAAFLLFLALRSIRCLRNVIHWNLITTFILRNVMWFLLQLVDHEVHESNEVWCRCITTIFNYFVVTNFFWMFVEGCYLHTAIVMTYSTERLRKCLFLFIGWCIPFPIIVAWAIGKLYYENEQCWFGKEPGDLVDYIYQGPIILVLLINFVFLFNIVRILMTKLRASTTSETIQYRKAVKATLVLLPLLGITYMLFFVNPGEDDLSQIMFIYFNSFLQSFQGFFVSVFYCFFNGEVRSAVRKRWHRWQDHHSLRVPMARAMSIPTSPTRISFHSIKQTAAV
T6 sequence (P24387 whole entry): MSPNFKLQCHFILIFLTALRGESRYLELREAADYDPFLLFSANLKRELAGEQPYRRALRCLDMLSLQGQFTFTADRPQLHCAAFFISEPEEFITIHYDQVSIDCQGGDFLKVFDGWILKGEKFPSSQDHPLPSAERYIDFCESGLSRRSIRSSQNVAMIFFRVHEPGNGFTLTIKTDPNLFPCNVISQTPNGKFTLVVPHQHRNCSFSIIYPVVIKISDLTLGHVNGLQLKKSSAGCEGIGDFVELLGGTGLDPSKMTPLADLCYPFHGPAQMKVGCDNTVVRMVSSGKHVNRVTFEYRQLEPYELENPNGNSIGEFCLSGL

[20] = target: T6, Corticotropin-releasing factor receptor 2/Corticotropin-releasing factor-binding protein; assay: activators of CRF receptor 2 with binding protein – uHTS hits, confirmation (AID 602473); format: functional; conditions: read-out: EC50_Mean

Induced myeloid leukemia cell differentiation protein Mcl-1, sequence (Q07820 whole entry): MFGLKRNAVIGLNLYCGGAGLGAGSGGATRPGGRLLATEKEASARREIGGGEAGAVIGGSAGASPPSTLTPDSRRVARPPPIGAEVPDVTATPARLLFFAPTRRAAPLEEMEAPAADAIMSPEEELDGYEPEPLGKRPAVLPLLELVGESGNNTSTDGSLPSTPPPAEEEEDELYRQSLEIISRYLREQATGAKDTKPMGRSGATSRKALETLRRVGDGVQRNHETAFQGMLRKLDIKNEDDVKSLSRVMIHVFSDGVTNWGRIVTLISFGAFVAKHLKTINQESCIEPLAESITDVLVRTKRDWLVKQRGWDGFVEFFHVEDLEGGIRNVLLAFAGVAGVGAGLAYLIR

In the case of `CC(C)/N=C(\S)NN=C1CCCCCCCCCCC1`, the IC50 [1] was 1.04 µM (not active).
For `CCN(CC)CCN(C(=O)c1ccc(N2C(=O)CCC2=O)cc1)c1nc2cc3c(cc2s1)OCCO3`, the AC50 [2] was 21.9 µM (active).
In the case of `CCn1c(C)nc2cc(N)ccc21`, the EC50 [3] was 261 µM (active), the EC50 [4] was 4.59 µM (active) and the AC50 [2] was 5.49 µM (active).
For `O=C(OCC(=O)N1c2ccccc2Sc2ccccc21)c1ccc[n+]([O-])c1`, the IC50 [1] was 1.66 µM (not active).
For `O=C1c2cccc3cccc(c23)C(=O)N1CCN1CCN(C(=S)Nc2ccc(Cl)cc2)CC1`, the IC50 [1] was 22.7 µM (not active).
In the case of `Cc1cccc(Oc2ccc(Cl)cc2N)c1`, the IC50 [1] was > 50 µM (not active).
With `OCC[C@@H]1C[C@@H](O)[C@H](O)[C@]2(OCc3ccccc32)O1` the AC50 [5] was 28.2 µM (active) and the AC50 [6] was 27.2 µM (active).
With `C[C@@H]1CN([C@H](C)CO)S(=O)(=O)c2ccc(C#Cc3ccccc3F)cc2O[C@H]1CN(C)C(=O)c1ccc2c(c1)OCO2` the IC50 [7] was > 79 µM (inactive), the AC50 [8] was 1.61 µM (active) and the AC50 [9] was 1.6 µM (active). The AC50 [10] was 1.18 µM (active) and the AC50 [11] was 0.925 µM (active).
With `O=C(Cc1ccc(S(=O)(=O)N2CCOCC2)s1)N1CCN(S(=O)(=O)c2ccc(Cl)cc2)CC1` the AC50 [12] was 7.03 µM (active), the AC50 [13] was 7.93 µM (active) and the AC50 [5] was 14.1 µM (active). For the same compound, the AC50 [6] was 28.2 µM (active).
In the case of `O=[N+]([O-])c1cc(Br)c(O)c(/C=N/Nc2nc3ccccc3s2)c1`, the EC50 [14] was 1.59 µM (active), the IC50 [15] was > 54 µM (active) and the EC50 [16] was 1.69 µM (active).
With `COc1ccccc1NS(=O)(=O)c1cccc(C(=O)N/N=C/c2c(CO)cnc(C)c2O)c1` the IC50 [17] was > 20 µM (inactive) and the IC50 [7] was > 79 µM (inactive).
In the case of `C[C@H](CO)N1C[C@H](C)[C@H](CN(C)C(=O)Nc2ccc(F)cc2)Oc2c(NC(=O)c3ccncc3)cccc2C1=O`, the AC50 [18] was 2.08 µM (active).
With `Cc1ccc(S(=O)(=O)Nc2ccc3c(c2)C(=O)N([C@H](C)CO)C[C@H](C)[C@@H](CN(C)C(=O)Nc2ccc(C(F)(F)F)cc2)OCCCC[C@@H](C)O3)cc1` the AC50 [18] was 4.82 µM (active).
With `Cc1ccc(S(=O)(=O)N(C)C[C@H]2Oc3c(NC(=O)c4nc5ccccc5s4)cccc3C(=O)N([C@@H](C)CO)C[C@@H]2C)cc1` the AC50 [18] was 1.09 µM (active).
With `C[C@@H]1CN([C@@H](C)CO)C(=O)c2cccc(NC(=O)Nc3ccc(F)cc3)c2O[C@@H]1CN(C)Cc1ccc(C(=O)Nc2ccccc2N)cc1` the AC50 [18] was 3.68 µM (active).
In the case of `C[C@@H]1CN([C@H](C)CO)C(=O)Cc2cc(NS(=O)(=O)c3ccc(F)cc3)ccc2O[C@@H]1CN(C)Cc1ccc(-c2ccccc2)cc1`, the AC50 [18] was 3.2 µM (active).
For `C[C@@H]1CN([C@@H](C)CO)C(=O)c2cccc(NS(=O)(=O)c3ccc(Cl)cc3)c2O[C@H]1CN(C)Cc1ccc(C(=O)Nc2ccccc2N)cc1`, the AC50 [18] was 2.53 µM (active).
With `CC1CCN(C(=O)c2ncn3c2C(=O)N[C@@H](C)C3)CC1` the AC50 [12] was 1.94 µM (active), the AC50 [13] was 9.53 µM (active) and the AC50 [5] was 7.15 µM (active). The AC50 [6] was 9.91 µM (active).
With `O=C(N/N=C/c1ccccn1)c1cccs1` the IC50 [7] was > 79 µM (inactive), the IC50 [19] was > 47.1 µM (inactive) and the EC50 [20] was > 53 µM (inactive).
For `CCN(CC)CCN(C(=O)c1ccc2c(c1)CCCC2)c1nc2c(OC)cccc2s1`, the AC50 [2] was 24.3 µM (active).
For `O=C(Nc1ccccc1)N1CCCCN2[C@H](CO)[C@H](c3ccc(C#Cc4cccnc4)cc3)[C@@H]2C1`, the AC50 [8] was 0.15 µM (active), the AC50 [9] was 0.676 µM (active) and the AC50 [10] was 0.165 µM (active). For the same compound, the AC50 [11] was 0.157 µM (active).
With `C[C@H](CO)N1C[C@H](C)[C@@H](CN(C)C(=O)Nc2cccc3ccccc23)Oc2ccc(NC(=O)Cc3cn(C)c4ccccc34)cc2C1=O` the AC50 [8] was 2.16 µM (active), the AC50 [9] was 2.34 µM (active) and the AC50 [10] was 1.38 µM (active). The AC50 [11] was 1.56 µM (active).
For `C[C@@H]1CN([C@@H](C)CO)C(=O)c2cccc(NC(=O)Nc3ccccc3)c2O[C@@H]1CN(C)C(=O)Nc1ccc(F)cc1`, the AC50 [8] was 0.65 µM (active), the AC50 [9] was 0.392 µM (active) and the AC50 [10] was 0.35 µM (active). For the same compound, the AC50 [11] was 0.372 µM (active).
For `COc1cc2c3cc1Oc1c(OC)c(OC)cc4c1[C@H](Cc1ccc(cc1)Oc1cc(ccc1O)C[C@H]3N(C)CC2)N(C)CC4` [AROMOLINE], the AC50 [2] was 9.29 µM (active).
